The text below walks through data of patent US20230339970A1, “CASEIN KINASE 1 DELTA MODULATORS” (priority 2020, published 2023).

The IC50 is the concentration at which inhibition is half-maximal.

Test [1] deals with T1, human CSNK1D (Homo sapiens, UniProt P48730).
T1 construct: expressed in transfected cells
In words: Whole Cell nBRET CSNK1D Binding Assay. The following applies: living CHO cells stably expressing human CSNK1D tagged with nanoluciferase; NanoBret tracer 130 nM; 2 hours at 37 C.

Test [2] concerns the target T2, human recombinant GST cleaved CSNK1D (Homo sapiens, UniProt P48730).
T2 construct: GST (cleaved yes); purchased University of Dundee clone DU 19064
The test is described as follows: Purified Enzyme Assay (ADP-Glo CSNK1D Kinase Assay). The class given is biochemical. The following applies: 2 nM CSNK1D; peptide substrate 150 μM; ATP 20 μM; 45 minutes at room temperature. The method, boiled down:
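GST-cleaved human recombinant CSNK1D phosphorylates peptide PLSRTL-pS-VASLPGL with ATP; compounds added in dose-response, 45 min at room temperature. ADP formed measured by ADP-Glo luminescence and converted to percent activity.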
For orientation: In ADP-Glo the light output rises with the ADP produced.

T2 sequence (P48730 whole entry): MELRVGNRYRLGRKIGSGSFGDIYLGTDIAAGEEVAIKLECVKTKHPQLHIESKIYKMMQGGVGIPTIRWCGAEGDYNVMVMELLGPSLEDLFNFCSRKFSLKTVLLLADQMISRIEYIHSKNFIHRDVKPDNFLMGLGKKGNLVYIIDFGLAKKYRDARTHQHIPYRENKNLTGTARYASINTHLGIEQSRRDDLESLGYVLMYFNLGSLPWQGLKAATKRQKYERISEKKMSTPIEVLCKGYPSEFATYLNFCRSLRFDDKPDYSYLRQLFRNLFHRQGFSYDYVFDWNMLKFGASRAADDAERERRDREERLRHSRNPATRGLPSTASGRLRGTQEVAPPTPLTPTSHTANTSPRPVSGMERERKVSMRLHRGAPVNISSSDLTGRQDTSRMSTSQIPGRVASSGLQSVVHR
T1 sequence (P48730 whole entry): as above

As for `C[C@@H]1Cn2nc(-c3ccc(F)cc3)c(-c3ccnc4[nH]ncc34)c2CO1` (single isomer, unassigned) [Example 82, (*R)-2-(4-Fluorophenyl)-6-methyl-3-(1H-pyrazolo[3,4-b]pyridin-4-yl)-6,7-dihydro-4H-pyrazolo[5,1-c][1,4]oxazine], the IC50 in test [1] was 26 nM; in test [2] it was 2 nM.

On to `COCC1(F)CCc2c(-c3c(F)cnc4[nH]ncc34)c(-c3ccc(F)cn3)nn2C1` (single isomer, unassigned) [Example 303, (*R)-5-Fluoro-4-[6-fluoro-2-(5-fluoro-2-pyridyl)-6-(methoxymethyl)-5,7-dihydro-4H-pyrazolo[1,5-a]pyridin-3-yl]-1H-pyrazolo[3,4-b]pyridine], for which the 50% inhibitory concentration (IC50) in test [1] is 180 nM; in test [2], 9 nM.

Turning to `CC1(CF)CCc2c(-c3ccn4nccc4c3)c(-c3ccc(F)cn3)nn2C1` (single isomer, unassigned) [Example 290, (*S)-5-[6-(Fluoromethyl)-2-(5-fluoro-2-pyridyl)-6-methyl-5,7-dihydro-4H-pyrazolo[1,5-a]pyridin-3-yl]pyrazolo[1,5-a]pyridine], the IC50 in test [1] came out at 120 nM; in test [2], 539 nM.

As to `CC1(C)Cc2c(-c3c(F)cnc4[nH]ncc34)c(-c3ccc(F)cn3)nn2C1` [Example 236, 5-Fluoro-4-[2-(5-fluoro-2-pyridyl)-5,5-dimethyl-4,6-dihydropyrrolo[1,2-b]pyrazol-3-yl]-1H-pyrazolo[3,4-b]pyridine], the figures for the IC50 in test [1] and in test [2] were 21 nM and 3 nM, respectively.

In the case of `Fc1ccc(-c2nn3c(c2-c2ccnc4[nH]ncc24)CCC2C3C2(F)F)nc1` (racemic) [Example 58, (Racemic) 6,6-Difluoro-2-(5-fluoropyridin-2-yl)-3-(1H-pyrazolo[3,4-b]pyridin-4-yl)-5,5a,6,6a-tetrahydro-4H-cyclopropa[e]pyrazolo[1,5-a]pyridine], the figures for the IC50 in test [1] and in test [2] were 65 nM and 5 nM, respectively.

Consider `CC1(C)Cn2nc(-c3ccc(F)cn3)c(-c3ccnc(NC(=O)C4CC4(F)F)c3)c2CO1` (centres unmarked) [Example 135, 2,2-Difluoro-N-(4-(2-(5-fluoropyridin-2-yl)-6,6-dimethyl-6,7-dihydro-4H-pyrazolo[5,1-c][1,4]oxazin-3-yl)pyridin-2-yl)cyclopropane-1-carboxamide], for which the IC50 in test [1] amounted to 6 nM; in test [2] it was 3 nM.

For `Cn1ncc2nccc(-c3c(-c4ccc(F)cn4)nn4c3COC(C)(C)C4)c21` [Example 159, 2-(5-Fluoropyridin-2-yl)-6,6-dimethyl-3-(1-methyl-1H-pyrazolo[4,3-b]pyridin-7-yl)-6,7-dihydro-4H-pyrazolo[5,1-c][1,4]oxazine], the half-inhibitory concentration (IC50) in test [1] is > 10000 nM; in test [2], 1180 nM.

In the case of `[2H]C([2H])([2H])[C@]1(C(F)(F)F)Cn2nc(-c3ccc(F)cn3)c(-c3ccnc4[nH]ncc34)c2CO1` (single isomer, unassigned) [Example 423, (*R)-2-(5-Fluoropyridin-2-yl)-6-(methyl-d3)-3-(1H-pyrazolo[3,4-b]pyridin-4-yl)-6-(trifluoromethyl)-6,7-dihydro-4H-pyrazolo[5,1-c][1,4]oxazine], the IC50 in test [1] turned out to be 1570 nM; in test [2] it was 67 nM.

On to `Cc1cc(-c2c(-c3ccc(F)cc3)nn3c2COC[C@H]3C)c2cn[nH]c2n1` (single isomer, unassigned) [Example 94, (*R)-2-(4-Fluorophenyl)-7-methyl-3-(6-methyl-1H-pyrazolo[3,4-b]pyridin-4-yl)-6,7-dihydro-4H-pyrazolo[5,1-c][1,4]oxazine], for which the IC50 amounted to 92 nM in test [1] and 7 nM in test [2].

Regarding `Cc1nc2[nH]ncc2c(-c2c(-c3ccc(F)cn3)nn3c2CC2(C3)CC2(F)F)c1F` (single isomer, unassigned) [Example 264, (*S)-1′.1′-Difluoro-3-(5-fluoro-6-methyl-1H-pyrazolo[3,4-b]pyridin-4-yl)-2-(5-fluoro-2-pyridyl)spiro[4,6-dihydropyrrolo[1,2-b]pyrazole-5,2′-cyclopropane]], the figures for the concentration for half-maximal inhibition (IC50) in test [1] and in test [2] were 20 nM and 4 nM, respectively.

As for `COC[C@]1(F)CCc2c(-c3cc(C)nc4[nH]ncc34)c(-c3ccc(F)cn3)nn2C1` (single isomer, unassigned) [Example 304, (*S)-4-[6-Fluoro-2-(5-fluoro-2-pyridyl)-6-(methoxymethyl)-5,7-dihydro-4H-pyrazolo[1,5-a]pyridin-3-yl]-6-methyl-1H-pyrazolo[3,4-b]pyridine], the results for the IC50 in test [1] and in test [2] were 34 nM and 4 nM, respectively.

Turning to `CC(=O)Nc1cc(-c2c(-c3ccc(F)cn3)nn3c2OCCC3)ccn1` [Example 183, N-(4-(2-(5-Fluoropyridin-2-yl)-6,7-dihydro-5H-pyrazolo[5,1-b][1,3]oxazin-3-yl)pyridin-2-yl)acetamide], the IC50 came out at 220 nM in test [1] and 7 nM in test [2].

For `Cc1nc2[nH]ncc2c(-c2c(-c3ccc(F)cn3)nn3c2C[C@@H]2C[C@@H]23)c1F` [Example 273, (4aS,5aS)-3-(5-Fluoro-6-methyl-1H-pyrazolo[3,4-b]pyridin-4-yl)-2-(5-fluoropyridin-2-yl)-4,4a,5,5a-tetrahydrocyclopropa[4,5]pyrrolo[1,2-b]pyrazole], the values for the IC50 in test [1] and in test [2] were 29 nM and 2 nM, respectively.

With `Cc1nc(-c2nn3c(c2-c2ccnc4[nH]ncc24)COC(C)(C)C3)ccc1F` [Example 164, 2-(5-Fluoro-6-methylpyridin-2-yl)-6,6-dimethyl-3-(1H-pyrazolo[3,4-b]pyridin-4-yl)-6,7-dihydro-4H-pyrazolo[5,1-c][1,4]oxazine], the concentration for half-maximal inhibition (IC50) amounted to 165 nM in test [1] and 9 nM in test [2].

For `Fc1ccc(-c2nn3c(c2-c2c(F)cnc4[nH]ncc24)CC[C@H]2[C@@H]3C2(F)F)nc1` (single isomer, unassigned) [Example 358, (5a*S,6a*R)-6,6-difluoro-3-(5-fluoro-1H-pyrazolo[3,4-b]pyridin-4-yl)-2-(5-fluoropyridin-2-yl)-5,5a,6,6a-tetrahydro-4H-cyclopropa[e]pyrazolo[1,5-a]pyridine], the half-inhibitory concentration (IC50) was 85 nM in test [1] and 4 nM in test [2].

For the molecule `CC(=O)Nc1cc(-c2c(-c3ccc(F)cc3)nn3c2CC[C@@H]2[C@H]3C2(F)F)ccn1` (stereo in doubt) [Example 349, N-(4-((5a*R,6a*S-6,6-Difluoro-2-(4-fluorophenyl)-5,5a,6,6a-tetrahydro-4H-cyclopropa[e]pyrazolo[1,5-a]pyridin-3-yl)pyridin-2-yl)acetamide], the IC50 in test [1] amounted to 74 nM; in test [2], 8 nM.

As to `[2H]C([2H])([2H])C1(C([2H])([2H])[2H])Cn2nc(-c3ccc(F)cn3)c(-c3ccn4nccc4c3)c2CO1` [Example 396, 2-(5-Fluoropyridin-2-yl)-6,6-bis(methyl-d3)-3-(pyrazolo[1,5-a]pyridin-5-yl)-6,7-dihydro-4H-pyrazolo[5,1-c][1,4]oxazine], the IC50 in test [1] came to 292 nM; in test [2], 22 nM.

Take `Cc1cc(-c2c(-c3ccc(F)cc3)nn3c2COCC32CC2)c2cn[nH]c2n1` [Example 107, 2′-(4-Fluorophenyl)-3′-(6-methyl-1H-pyrazolo[3,4-b]pyridin-4-yl)-4′H,6′H-spiro[cyclopropane-1,7-pyrazolo[5,1-c][1,4]oxazine]]: the concentration for half-maximal inhibition (IC50) came out at 72 nM in test [1] and 9 nM in test [2].

Take `Cc1cc(-c2c(-c3cscn3)nn3c2COC(C)(C)C3)c2cn[nH]c2n1` [Example 125, 6,6-Dimethyl-3-(6-methyl-1H-pyrazolo[3,4-b]pyridin-4-yl)-2-(thiazol-4-yl)-6,7-dihydro-4H-pyrazolo[5,1-c][1,4]oxazine]: the concentration for half-maximal inhibition (IC50) in test [1] was found to be 270 nM; in test [2], 12 nM.

Turning to `CC1(C)COc2c(-c3ccn4nccc4c3)c(-c3ccc(F)cn3)nn2C1` [Example 449, 2-(5-Fluoropyridin-2-yl)-6,6-dimethyl-3-(pyrazolo[1,5-a]pyridin-5-yl)-6,7-dihydro-5H-pyrazolo[5,1-b][1,3]oxazine], the values for the IC50 in test [1] and in test [2] were 70 nM and 8 nM, respectively.

Turning to `Fc1ccc(-c2nn3c(c2-c2ccnc4[nH]ncc24)OCCCC3)nc1` [Example 218, 2-(5-Fluoro-2-pyridyl)-3-(1H-pyrazolo[3,4-b]pyridin-4-yl)-5,6,7,8-tetrahydropyrazolo[5,1-b][1,3]oxazepane], the half-maximal inhibitory concentration (IC50) in test [1] came out at 239 nM; in test [2] it was 12 nM.

As to `Fc1ccc(-c2nn3c(c2-c2ccnc4[nH]ncc24)CC2(C3)CC2(F)F)cc1` (single isomer, unassigned) [Example 251, (*R)-1′,1′-Difluoro-2-(4-fluorophenyl)-3-(1H-pyrazolo[3,4-b]pyridin-4-yl)spiro[4,6-dihydropyrrolo[1,2-b]pyrazole-5,2′-cyclopropane]], the 50% inhibitory concentration (IC50) in test [1] is 185 nM; in test [2], 26 nM.

Turning to `C[C@@H]1CCn2nc(-c3ccc(F)cn3)c(-c3ccnc4[nH]ncc34)c2O1` (single isomer, unassigned) [Example 199, (*R)-2-(5-Fluoro-2-pyridyl)-5-methyl-3-(1H-pyrazolo[3,4-b]pyridin-4-yl)-6,7-dihydro-5H-pyrazolo[5,1-b][1,3]oxazine], the values for the concentration for half-maximal inhibition (IC50) in test [1] and in test [2] were 186 nM and 12 nM, respectively.

`CC1(C)Cn2nc(-c3ccc(F)cn3)c(-c3cc(N)n4nccc4c3)c2CO1` [Example 380, 5-[2-(5-Fluoro-2-pyridyl)-6,6-dimethyl-4,7-dihydropyrazolo[5,1-c][1,4]oxazin-3-yl]pyrazolo[1,5-a]pyridin-7-amine]: the 50% inhibitory concentration (IC50) in test [1] came out at 93 nM; in test [2], 10 nM.

In the case of `Cc1cc(-c2c(-c3ccc(F)cc3)nn3c2COCC3(C)C)c2cn[nH]c2n1` [Example 121, 2-(4-Fluorophenyl)-7,7-dimethyl-3-(6-methyl-1H-pyrazolo[3,4-b]pyridin-4-yl)-4,6-dihydropyrazolo[5,1-c][1,4]oxazine], the IC50 in test [1] was determined as 233 nM; in test [2], 14 nM.
